Test results: ChEMBL document CHEMBL4138191, “Organic arsenicals target thioredoxin reductase followed by oxidative stress and mitochondrial dysfunction resulting in apoptosis” (Eur J Med Chem, 2018)
Active and inactive are the calls of the source. No cut-off for these calls is given here.

Assays:
HL-60 [1] = test: Induction of apoptosis in human HL60 cells assessed as incomplete cell membrane at 0.75 to 1.5 uM after 24 hrs by Hoechst 33342 staining-based laser scanning confocal microscopic analysis; type: functional
MCF7 = test: Cytotoxicity against human MCF7 cells after 48 hrs by MTT assay; type: functional, cell-based; details: for IC50: MCF7, 48 h
HL-60 [2] = test: Induction of ROS generation in human HL60 cells at 1.5 uM after 24 hrs in presence of antioxidant DTT by DCFH-DA staining-based flow cytometry; type: functional, cell-based
HL-60 [3] = test: Cytotoxicity against human HL60 cells by MTT assay; type: functional, cell-based; details: TDE = time-dependent effect
[4] = biological target: T1, Thioredoxin reductase 1, cytoplasmic (Homo sapiens) (UniProt Q16881); test: Inhibition of TrxR in human HL60 cells using thioredoxin as substrate up to 24 hrs measured for 5 mins by UV-Vis spectrophotometric analysis; type: cell-based
T1 sequence (whole entry): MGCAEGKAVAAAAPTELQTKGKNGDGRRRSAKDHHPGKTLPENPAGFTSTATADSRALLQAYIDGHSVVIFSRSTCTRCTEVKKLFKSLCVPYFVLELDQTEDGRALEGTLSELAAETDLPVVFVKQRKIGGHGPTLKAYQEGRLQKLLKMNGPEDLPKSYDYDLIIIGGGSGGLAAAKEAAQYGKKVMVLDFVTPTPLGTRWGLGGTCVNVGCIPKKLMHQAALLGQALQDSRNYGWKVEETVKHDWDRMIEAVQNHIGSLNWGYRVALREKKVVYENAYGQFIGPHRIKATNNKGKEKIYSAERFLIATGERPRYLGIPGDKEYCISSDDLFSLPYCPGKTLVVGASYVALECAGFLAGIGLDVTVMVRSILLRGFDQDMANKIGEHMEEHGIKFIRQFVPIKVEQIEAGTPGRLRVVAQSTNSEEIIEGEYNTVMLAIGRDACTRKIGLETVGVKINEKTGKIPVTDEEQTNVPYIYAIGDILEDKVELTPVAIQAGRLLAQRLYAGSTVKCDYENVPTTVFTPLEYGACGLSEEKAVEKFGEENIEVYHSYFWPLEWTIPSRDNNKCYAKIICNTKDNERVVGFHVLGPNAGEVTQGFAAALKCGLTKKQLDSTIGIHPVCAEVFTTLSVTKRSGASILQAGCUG

HL-60 [5] = test: Induction of ROS generation in human HL60 cells at 1.5 uM after 24 hrs in presence of ROS inhibitor NAC by DCFH-DA staining-based flow cytometry; type: functional, cell-based
HL-60 [6] = test: Induction of ROS generation in human HL60 cells at 1.5 uM after 24 hrs by DCFH-DA or DHE staining-based fluorescence microscopic analysis; type: functional, cell-based
HL-60 [7] = test: Induction of apoptosis in human HL60 cells assessed as DNA incision in bulk of cells at 0.75 to 1.5 uM after 24 hrs by Hoechst 33342 staining-based laser scanning confocal microscopic analysis; type: functional, cell-based
Liver [8] = test: Induction of mitochondrial dysfunction in Wistar rat liver assessed as swelling up to 30 uM for 60 mins; type: functional; details: mitochondria
Homo sapiens = species on record: Homo sapiens; test: Effect on glutathione peroxidase catalytic activity in human HL60 cells; type: cell-based
HL-60 [9] = test: Induction of apoptosis in human HL60 cells assessed as apoptotic body formation at 0.75 to 1.5 uM after 24 hrs by Hoechst 33342 staining-based laser scanning confocal microscopic analysis; type: functional, cell-based
HL-60 [10] = test: Induction of mitochondrial membrane potential loss in human HL60 cells at 1.5 uM after 24 hrs by JC-1 staining-based flow cytometry (reference value: 28.6%); type: functional
HL-60 [11] = test: Induction of cell death in human HL60 cells at 1 to 1.5 uM after 24 hrs in presence of antioxidant NAC by trypan blue assay; type: functional, cell-based
HL-60 [12] = test: Induction of ROS generation in human HL60 cells at 1.5 uM after 24 hrs in presence of antioxidant lipoic acid by DCFH-DA staining-based flow cytometry; type: functional, cell-based
HL-60 [13] = test: Induction of mitochondrial dysfunction in human HL60 cells assessed as increase in cytochome c levels in cytosol at 1.5 uM after 24 hrs by ELISA relative to control; type: functional
HL-60 [14] = test: Induction of apoptosis in human HL60 cells assessed as condensed nuclei at 0.75 to 1.5 uM after 24 hrs by Hoechst 33342 staining-based laser scanning confocal microscopic analysis; type: functional, cell-based
HL-60 [15] = test: Induction of cell death in human HL60 cells at 1 to 1.5 uM after 24 hrs in presence of antioxidant resveratrol by trypan blue assay; type: functional, cell-based
HL-60 [16] = test: Reduction of mitochondrial membrane potential in human HL60 cells assessed as decrease in ATP levels at 0.75 to 1.5 uM after 24 hrs; type: functional, cell-based
HL-60 [17] = test: Induction of apoptosis in human HL60 cells assessed as necrotic cells at 0.75 to 1.5 uM after 24 hrs by Annexin V-FITC/propidium iodide staining-based flow cytometry; type: functional
HL-60 [18] = test: Cytotoxicity against human HL60 cells after 24 hrs by MTT assay; type: functional, cell-based; details: for IC50: HL-60, 24 h
HL-60 [19] = test: Induction of cell death in human HL60 cells at 1 to 1.5 uM after 24 hrs in presence of antioxidant vitamin E by trypan blue assay; type: functional, cell-based
Liver [20] = test: Induction of mitochondrial dysfunction in Wistar rat liver assessed as swelling at 20 uM in presence of calcium related inhibitor ruthenium red; type: functional; details: mitochondria
HL-60 [21] = test: Induction of cell death in human HL60 cells at 0.4 uM after 24 hrs in presence of […] BSO by MTT assay; type: functional, cell-based
Liver [22] = test: Induction of mitochondrial dysfunction in Wistar rat liver assessed as swelling at 20 uM in presence of calcium related inhibitor cyclosporine A; type: functional; details: mitochondria
HL-60 [23] = test: Induction of mitochondrial membrane potential loss in human HL60 cells at 0.75 uM after 24 hrs by JC-1 staining-based flow cytometry (reference value: 28.6%); type: functional
HL-60 [24] = test: Induction of apoptosis in human HL60 cells assessed as apoptotic cells at 0.75 to 1.5 uM after 24 hrs by Annexin V-FITC/propidium iodide staining-based flow cytometry; type: functional
HL-60 [25] = test: Induction of cell death in human HL60 cells at 1 to 1.5 uM after 24 hrs in presence of antioxidant DTT by trypan blue assay; type: functional, cell-based
HL-60 [26] = test: Potentiation of H2O2-induced cytotoxicity in human HL60 cells assessed as induction of cell death at 1.5 to 2 uM preincubated for 6 hrs followed by compound washout and subsequent H2O2 addition measured after 18 hrs by MTT assay; type: functional, cell-based
HL-60 [27] = test: Induction of mitochondrial membrane potential loss in human HL60 cells at 0.75 uM after 24 hrs by JC-1 staining-based flow cytometry (reference value: 24.3%); type: functional
HL-60 [28] = test: Induction of mitochondrial membrane potential loss in human HL60 cells at 1.5 uM after 24 hrs by JC-1 staining-based flow cytometry (reference value: 24.3%); type: functional

Compound | Activity (HL-60 [1]) | Activity (MCF7) | IC50 (MCF7) [nM] | Activity (HL-60 [2]) | Activity (HL-60 [3]) | inhibition [4] | Activity (HL-60 [5]) | Activity (HL-60 [6]) | Activity (HL-60 [7]) | Activity (Liver [8]) | Activity (Homo sapiens) | Activity (HL-60 [9]) | Activity (HL-60 [11]) | Activity (HL-60 [12]) | fold change (FC) (HL-60 [13]) | Activity (HL-60 [14]) | Activity (HL-60 [15]) | Activity (HL-60 [16]) | Activity (HL-60 [17]) | Activity (HL-60 [18]) | other results
O=C(Nc1ccc([As]2SCCCS2)cc1)c1ccccc1O | Active | Dose-dependent effect | 7890 | inactive | Tde | Dose-dependent effect | inactive | Active | Active | Active | inactive | Active | inactive | inactive | 2 | Active | Active | Active | <=0.2% | Dose-dependent effect | Activity (HL-60 [10]): 71.8%; IC50 (HL-60 [18]): 840 nM; Activity (HL-60 [19]): Active; Activity (Liver [20]): inactive; Activity (HL-60 [21]): Active; Activity (Liver [22]): inactive; Activity (HL-60 [23]): 51.8%; Activity (HL-60 [24]): 40%; Activity (HL-60 [25]): inactive; Activity (HL-60 [26]): Active
Oc1ccccc1/C=N/c1ccc([As]2SCCCS2)cc1 | Active | Dose-dependent effect | 2440 | inactive | Tde | Dose-dependent effect | inactive | Active | Active | Active | inactive | Active | inactive | inactive | 2 | Active | Active | Active | <=0.2% | Dose-dependent effect | Activity (HL-60 [27]): 49.1%; Activity (HL-60 [28]): 71%; IC50 (HL-60 [18]): 940 nM; Activity (HL-60 [19]): Active; Activity (Liver [20]): inactive; Activity (HL-60 [21]): Active; Activity (Liver [22]): inactive; Activity (HL-60 [24]): 40%; Activity (HL-60 [25]): inactive; Activity (HL-60 [26]): Active
